Laboratory results: PubChem BioAssay AID1963980 (Molecular Pharmacology Branch, DTP, NCI, 2024)
“And” between values parts separate entries of the source, which are not always exact repeats. Identical values can stand only once.

System: 475296-252-R-J1-PDC spheroid viability
Experiment: Anticancer human tumor 475296-252-R-J1-PDC patient-derived rectal carcinoma cell line growth inhibition [PI3K]
Settings: spheroids with HUVEC and MSC; for viability, T/C: stronger effect = lower value
Text: Combinatorial screen of targeted agents with the PI3K inhibitors inavolisib, alpelisib, duvelisib, and copanlisib in multi-cell type tumor spheroids
A high-throughput screen of multi-cell type tumor spheroids was designed to identify active combinations of targeted small molecules and PI3K pathway inhibitors. Complex spheroids include a stromal component modeled by human endothelial cells (HUVEC) and fibroblasts modeled by human mesenchymal stem cells (MSCs). The concentration ranges selected for each drug and investigational agent were based upon clinically achievable concentrations if the clinical Cmax of the agent was known.
Compounds. The drugs and investigational agents: inavolisib (NSC800729), alpelisib (NSC765974), duvelisib (NSC772469), copanlisib (NSC816437), ipatasertib (NSC767898), afuresertib (NSC778305), talazoparib (NSC767125), sapanisertib (NSC764658), selumetinib (NSC741078), tovorafenib (DAY101, NSC766906), vemurafenib (NSC761431), ravoxertinib (NSC781343), sotorasib (NSC818433), MRTX1133 (NSC 836407), abemaciclib (NSC 768073), palbociclib (NSC758247), venetoclax (NSC 766270), SY5609 (NSC837396), enzalutamide (NSC755605), and darolutamide (NSC825331), were obtained from the National Cancer Institute (NCI) Developmental Therapeutics Program Chemical Repository. The FDA-approved anticancer drug set is available from the NCI Developmental Therapeutics Program. […] The stock solutions were prepared in dimethyl sulfoxide (DMSO, Sigma-Aldrich, St. Louis, MO, cat. D2650) at 800-fold the tested concentration and stored at -70 degrees C prior to their use. All drugs and investigational agents were tested over a range starting from a high concentration at or near the clinical Cmax and decreasing in half-log increments. If the clinical Cmax for an agent had not been determined, the highest concentration tested was 10 microM.
Cell Culture. All cells were maintained in an incubator at 37 degrees C and 5% CO2 with 95% humidity. The PDC lines were cultured according to standard operating procedures established by the NCI PDMR (https://pdmr.cancer.gov/sops/default.htm). All PDCs were thawed and cultured in Matrigel-coated flasks prepared with a working solution of 1X Ham's F-12 nutrient mix, without supplementation (Invitrogen, Waltham, MA, cat. 11765054), 100 U/mL penicillin-streptomycin (Invitrogen, cat. 15140122), and 2.5% Matrigel (Corning Inc., Corning, NY, cat. 354248) for the first three passages. The 354836-022-R-J1-PDC, 475296-252-R-J1-PDC, and 997726-040-R-J2-PDC lines were cultured in 6A media, which includes advanced DMEM/F-12 (Thermo Fisher Scientific, cat. 12634028), 10 mM HEPES (Thermo Fisher Scientific, cat. 15630080), 1X GlutaMAX supplement (Thermo Fisher Scientific, cat. 35050061), 0.1 mg/mL primocin (InvivoGen, San Diego, CA, cat. ant-pm-2), 10% defined fetal bovine serum, heat inactivated (HyClone Laboratories Inc., Logan, UT, cat. SH30070.03HI), 50% L-WRN conditioned media (ATCC, cat. CRL-3276), 1.25 mM N-Acetyl-L-cysteine (Sigma-Aldrich, cat. A9165), 10 mM nicotinamide (Sigma-Aldrich, cat. N0636), 1X B-27 supplement (Thermo Fisher Scientific, cat. 17504044), 1X N-2 supplement (Thermo Fisher Scientific, cat. 17502048), and 10 microM Y-27632 dihydrochloride (Tocris Bioscience, Bristol, United Kingdom, cat. 1254). The 624824-186-R-J2-PDC line was cultured in 6C/Colon 1B media, which includes all 6A media components plus 50 ng/mL human EGF recombinant protein (Thermo Fisher Scientific, cat. PHG0311). […]

[1] = compound alone, run of 06/12/2023
[2] = compound alone, run of 06/13/2023
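Also: spheroids exposed to agents for seven days before readout.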

SMILES: CC(=O)c1c(C)c2cnc(Nc3ccc(N4CCNCC4)cn3)nc2n(C2CCCC2)c1=O
- viability, T/C (compound 0.000316 µM): 106% [middle of 4 runs]
- viability, T/C (compound 0.001 µM): 98.3% [middle of 4 runs]
- viability, T/C (compound 0.00316 µM): 98% [middle of 4 runs]
- viability, T/C (compound 0.01 µM): 98.9% [middle of 4 runs]
- viability, T/C (compound 0.0316 µM): 108% [middle of 4 runs]
- viability, T/C (compound 0.1 µM): 108% [middle of 4 runs]
- IC50 (curve of compound): > 0.1 µM

SMILES: CC(C)NCC(C(=O)N1CCN(c2ncnc3c2C(C)CC3O)CC1)c1ccc(Cl)cc1 (stereo not drawn)
- viability, T/C (compound 0.0316 µM): 102% [middle of 4 runs]
- viability, T/C (compound 0.1 µM): 105% [middle of 4 runs]
- viability, T/C (compound 0.316 µM): 89.5% [middle of 4 runs]
- viability, T/C (compound 1 µM): 76.1% [middle of 4 runs]
- viability, T/C (compound 3.16 µM): 75.5% [middle of 4 runs]
- viability, T/C (compound 10 µM): 62.3% [middle of 4 runs]
- IC50 (curve of compound): > 10 µM

SMILES: CC(C)n1nc(-c2ccc3oc(N)nc3c2)c2c(N)ncnc21
- viability, T/C (compound 0.000316 µM): 99.6% [middle of 4 runs]
- viability, T/C (compound 0.001 µM): 94.3% [middle of 4 runs]
- viability, T/C (compound 0.00316 µM): 93.9% [middle of 4 runs]
- viability, T/C (compound 0.1 µM): 63.1% [middle of 4 runs]
- IC50 (curve of compound): > 0.1 µM

SMILES: CC(Cn1ccc(-c2ccc(C#N)c(Cl)c2)n1)NC(=O)c1cc(C(C)O)[nH]n1 (stereo not drawn)
- viability, T/C (compound 0.0316 µM): 105% [middle of 4 runs]
- viability, T/C (compound 0.1 µM): 96.9% [middle of 4 runs]
- viability, T/C (compound 0.316 µM): 99% (2×) and 93.4% and 120%
- viability, T/C (compound 1 µM): 105% [middle of 4 runs]
- viability, T/C (compound 3.16 µM): 101% [middle of 4 runs]
- viability, T/C (compound 10 µM): 105% [middle of 4 runs]
- IC50 (curve of compound): > 10 µM

SMILES: CC(Nc1ccc2c(c1)OCCn1cc(N3C(=O)OCC3C(F)F)nc1-2)C(N)=O (stereo not drawn)
- viability, T/C (compound 0.00316 µM): 98.8% [middle of 8 runs]
- viability, T/C (compound 0.01 µM): 96.9% [middle of 8 runs]
- viability, T/C (compound 0.0316 µM): 98.1% [middle of 8 runs]
- viability, T/C (compound 0.1 µM): 96.8% [middle of 8 runs]
- viability, T/C (compound 0.316 µM): 91.3% [middle of 8 runs]
- viability, T/C (compound 1 µM): 81.1% [middle of 7 runs]
- IC50 [1]: > 1 µM

SMILES: CC(Nc1ncnc2nc[nH]c12)c1cc2cccc(Cl)c2c(=O)n1-c1ccccc1 (stereo not drawn)
- viability, T/C (compound 0.0316 µM): 102% [middle of 8 runs]
- viability, T/C (compound 0.1 µM): 96.3% [middle of 8 runs]
- viability, T/C (compound 0.316 µM): 90.4% [middle of 8 runs]
- viability, T/C (compound 1 µM): 102% [middle of 8 runs]
- viability, T/C (compound 3.16 µM): 96.3% [middle of 8 runs]
- viability, T/C (compound 10 µM): 94.9% [middle of 8 runs]
- IC50 [2]: > 10 µM

SMILES: CC1(C)CCC(CN2CCN(c3ccc(C(=O)NS(=O)(=O)c4ccc(NCC5CCOCC5)c([N+](=O)[O-])c4)c(Oc4cnc5[nH]ccc5c4)c3)CC2)=C(c2ccc(Cl)cc2)C1
- viability, T/C (compound 0.0316 µM): 97.2% and 102% (2×) and 99.9%
- viability, T/C (compound 0.1 µM): 97% [middle of 4 runs]
- viability, T/C (compound 0.316 µM): 101% [middle of 4 runs]
- viability, T/C (compound 1 µM): 101% [middle of 4 runs]
- viability, T/C (compound 3.16 µM): 101% (2×) and 94.9% and 88%
- IC50 (curve of compound): > 10 µM

SMILES: CC1(C)CCC(Nc2ncc(C(F)(F)F)c(-c3c[nH]c4c(P(C)(C)=O)c(C#N)ccc34)n2)CN1 (stereo not drawn)
- viability, T/C (compound 0.0316 µM): 90.7% [middle of 4 runs]
- viability, T/C (compound 0.1 µM): 98.6% [middle of 4 runs]
- viability, T/C (compound 0.316 µM): 109% [middle of 4 runs]
- viability, T/C (compound 1 µM): 129% [middle of 4 runs]
- viability, T/C (compound 3.16 µM): 148% (2×) and 176% and 175%
- IC50 (curve of compound): > 10 µM

SMILES: CCCS(=O)(=O)Nc1ccc(F)c(C(=O)c2c[nH]c3ncc(-c4ccc(Cl)cc4)cc23)c1F
- viability, T/C (compound 0.0316 µM): 101% [middle of 4 runs]
- viability, T/C (compound 0.1 µM): 95% [middle of 4 runs]
- viability, T/C (compound 0.316 µM): 96.8% [middle of 4 runs]
- viability, T/C (compound 1 µM): 90.3% [middle of 4 runs]
- viability, T/C (compound 3.16 µM): 98.2% [middle of 4 runs]
- viability, T/C (compound 10 µM): 95.3% [middle of 4 runs]
- IC50 (curve of compound): > 10 µM

SMILES: CCN1CCN(Cc2ccc(Nc3ncc(F)c(-c4cc(F)c5nc(C)n(C(C)C)c5c4)n3)nc2)CC1
- viability, T/C (compound 0.00316 µM): 101% [middle of 4 runs]
- viability, T/C (compound 0.01 µM): 100% [middle of 4 runs]
- viability, T/C (compound 0.0316 µM): 95.7% [middle of 4 runs]
- viability, T/C (compound 0.1 µM): 100% [middle of 4 runs]
- viability, T/C (compound 0.316 µM): 101% [middle of 4 runs]
- viability, T/C (compound 1 µM): 92.4% [middle of 4 runs]
- IC50 (curve of compound): > 1 µM

SMILES: COc1c(OCCCN2CCOCC2)ccc2c3n(c(=NC(=O)c4cnc(N)nc4)nc12)CCN3
- viability, T/C (compound 0.00316 µM): 103% [middle of 8 runs]
- viability, T/C (compound 0.01 µM): 97.3% [middle of 8 runs]
- viability, T/C (compound 0.0316 µM): 90.7% [middle of 8 runs]
- viability, T/C (compound 0.1 µM): 87% [middle of 8 runs]
- viability, T/C (compound 0.316 µM): 71.5% [middle of 8 runs]
- viability, T/C (compound 1 µM): 68% [middle of 8 runs]
- IC50 [2]: > 1 µM

SMILES: C[C@@H](NC(=O)c1ncnc(N)c1Cl)c1ncc(C(=O)Nc2cc(C(F)(F)F)c(Cl)cn2)s1
- viability, T/C (compound 0.0316 µM): 89.7% [middle of 4 runs]
- viability, T/C (compound 0.1 µM): 99.8% [middle of 4 runs]
- viability, T/C (compound 0.316 µM): 95.5% [middle of 4 runs]
- viability, T/C (compound 1 µM): 101% [middle of 4 runs]
- viability, T/C (compound 3.16 µM): 103% [middle of 4 runs]
- viability, T/C (compound 10 µM): 87.5% [middle of 4 runs]
- IC50 (curve of compound): > 10 µM

SMILES: Cc1nc(NC(=O)N2CCCC2C(N)=O)sc1-c1ccnc(C(C)(C)C(F)(F)F)c1 (stereo not drawn)
- viability, T/C (compound 0.0316 µM): 98.6% [middle of 8 runs]
- viability, T/C (compound 0.1 µM): 97.1% [middle of 8 runs]
- viability, T/C (compound 0.316 µM): 97% [middle of 8 runs]
- viability, T/C (compound 1 µM): 99.7% [middle of 8 runs]
- viability, T/C (compound 3.16 µM): 90.8% [middle of 8 runs]
- viability, T/C (compound 10 µM): 81.6% [middle of 8 runs]
- IC50 [1]: > 10 µM

SMILES: Cn1cnc2c(F)c(Nc3ccc(Br)cc3Cl)c(C(=O)NOCCO)cc21
- viability, T/C (compound 0.00949 µM): 97.5% [middle of 4 runs]
- viability, T/C (compound 0.03 µM): 91.9% [middle of 4 runs]
- viability, T/C (compound 0.0949 µM): 90.2% [middle of 4 runs]
- viability, T/C (compound 0.3 µM): 80.8% [middle of 4 runs]
- viability, T/C (compound 3 µM): 61.2% [middle of 4 runs]
- IC50 (curve of compound): > 3 µM and 2.76 µM

SMILES: Cn1ncc(Cl)c1-c1cc(C(=O)NC(CN)Cc2cccc(F)c2)sc1Cl (stereo not drawn)
- viability, T/C (compound 0.0316 µM): 85.6% [middle of 4 runs]
- viability, T/C (compound 0.1 µM): 88.6% [middle of 4 runs]
- viability, T/C (compound 0.316 µM): 68% [middle of 4 runs]
- viability, T/C (compound 1 µM): 65.5% [middle of 4 runs]
- viability, T/C (compound 3.16 µM): 75.9% [middle of 4 runs]
- viability, T/C (compound 10 µM): 70.7% [middle of 4 runs]
- IC50 (curve of compound): > 10 µM

SMILES: Cn1nccc1Nc1nccc(-c2ccn(C(CO)c3ccc(Cl)c(F)c3)c(=O)c2)n1 (stereo not drawn)
- viability, T/C (compound 0.0316 µM): 104% [middle of 4 runs]
- viability, T/C (compound 0.1 µM): 96.6% [middle of 4 runs]
- viability, T/C (compound 0.316 µM): 102% [middle of 4 runs]
- viability, T/C (compound 1 µM): 89.5% [middle of 4 runs]
- viability, T/C (compound 10 µM): 82.3% [middle of 4 runs]
- IC50 (curve of compound): > 10 µM

SMILES: Cn1ncnc1[C@H]1c2n[nH]c(=O)c3cc(F)cc(c23)N[C@@H]1c1ccc(F)cc1
- viability, T/C (compound 0.000316 µM): 114% and 102% (2×) and 106%
- viability, T/C (compound 0.001 µM): 104% [middle of 4 runs]
- viability, T/C (compound 0.00316 µM): 96.1% [middle of 4 runs]
- viability, T/C (compound 0.01 µM): 93.1% [middle of 4 runs]
- viability, T/C (compound 0.0316 µM): 104% [middle of 4 runs]
- viability, T/C (compound 0.1 µM): 90.4% [middle of 4 runs]
- IC50 (curve of compound): > 0.1 µM
